Measured values published in paper PMC3914206.

Experiments:
panel of 442 kinases [1] = molecular target: T1, panel of 442 kinases (Homo sapiens, UniProt Q16816); format: binding; conditions: Compound Concentration 10 µM
T1 construct: purchased KINOMEscan
Text: (§1) We assessed the selectivity of members of this scaffold using the KINOMEscan methodology across a near comprehensive panel of 442 kinases [[18,27]].

panel of 442 kinases [2] = molecular target: T2, panel of 442 kinases (Homo sapiens, UniProt Q9UPZ9); format: binding; conditions: Compound Concentration 10 µM
T2 construct: purchased KINOMEscan
T2 sequence (Q9UPZ9 1-632): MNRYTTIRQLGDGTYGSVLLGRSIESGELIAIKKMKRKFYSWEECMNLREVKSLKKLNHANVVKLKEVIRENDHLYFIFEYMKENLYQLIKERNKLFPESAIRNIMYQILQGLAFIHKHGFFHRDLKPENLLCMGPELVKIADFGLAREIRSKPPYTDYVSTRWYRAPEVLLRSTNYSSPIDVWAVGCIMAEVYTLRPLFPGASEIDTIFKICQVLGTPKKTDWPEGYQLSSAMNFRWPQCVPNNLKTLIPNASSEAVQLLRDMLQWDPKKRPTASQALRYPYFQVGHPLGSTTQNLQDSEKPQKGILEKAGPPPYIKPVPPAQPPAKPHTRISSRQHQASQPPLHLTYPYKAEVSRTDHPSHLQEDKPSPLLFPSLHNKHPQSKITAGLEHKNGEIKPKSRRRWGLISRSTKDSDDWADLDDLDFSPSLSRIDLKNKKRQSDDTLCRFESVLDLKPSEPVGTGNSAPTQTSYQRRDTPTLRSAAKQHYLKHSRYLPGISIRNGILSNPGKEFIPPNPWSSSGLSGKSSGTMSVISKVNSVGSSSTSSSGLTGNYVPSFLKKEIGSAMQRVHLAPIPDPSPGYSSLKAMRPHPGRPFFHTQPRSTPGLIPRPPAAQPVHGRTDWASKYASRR
Text: as §1

T1 sequence (Q16816 whole entry): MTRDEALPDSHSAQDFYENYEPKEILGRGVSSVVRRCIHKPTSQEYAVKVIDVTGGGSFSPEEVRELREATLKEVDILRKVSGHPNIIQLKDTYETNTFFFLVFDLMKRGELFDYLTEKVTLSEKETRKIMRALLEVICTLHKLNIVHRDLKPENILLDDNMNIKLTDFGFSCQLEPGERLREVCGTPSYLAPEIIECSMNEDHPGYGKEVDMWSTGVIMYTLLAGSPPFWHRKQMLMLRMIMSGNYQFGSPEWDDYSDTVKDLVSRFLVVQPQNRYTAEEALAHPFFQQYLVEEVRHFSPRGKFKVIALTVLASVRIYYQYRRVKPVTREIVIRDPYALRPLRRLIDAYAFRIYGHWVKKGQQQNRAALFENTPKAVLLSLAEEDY

Row | SMILES | KINOMEscan: PHKG1 (panel of 442 kinases [1]) | KINOMEscan: ICK (panel of 442 kinases [2])
1 | COc1cc(C(=O)N2CCC(N3CCN(C)CC3)CC2)ccc1Nc1ncc2c(n1)N1CCc3cccc(c31)C(=O)N2C [Compound 24] | 75 | 
2 | CCOc1cc(C(=O)N2CCC(N3CCN(C)CC3)CC2)ccc1Nc1ncc2c(n1)N(C1CCCC1)c1ccccc1C(=O)N2C [Compound 26] | 100 | 100
3 | COc1cc(C(=O)N2CCC(N3CCN(C)CC3)CC2)ccc1Nc1ncc2c(n1)N(C1CCCC1)c1ccccc1C(=O)N2C [Compound 25, 11-cyclopentyl-2-((2-methoxy-4-(4-(4-methylpiperazin-1-yl)piperidine-1-carbonyl)phenyl)amino)-5-methyl-5H-benzo[e]pyrimido[5,4-b][1,4]diazepin-6(11H)-one] | 100 | 100
4 | COc1cc(C(=O)N2CCC(N3CCN(C)CC3)CC2)ccc1Nc1ncc2c(n1)N(C)c1ccccc1C(=O)N2C [15 (LRRK2-IN-1)] | 54 | 90
